The values below come from patent US20170166561A1, “QUINUCLIDINE COMPOUNDS FOR MODULATING ALPHA7-NICOTINIC ACETYLCHOLINE RECEPTOR ACTIVITY” (Alpharmagen, LLC, priority 2014, published 2017).

Structures can show the parent of a compound that is named as a salt.

One data set is described as follows: Human plasma stability (Protocols 1 and 2). It counts as in vitro ADME. The following applies: human, plasma, 2 h, 1 μM, pH 7.4. The method, then: Example B6: Human Plasma Stability
Studies were carried out in human plasma. All plasma was obtained from Bioreclamation and collected on sodium heparin. Plasma was adjusted to pH 7.4. A DMSO stock was first prepared for the test compound. An aliquot of the DMSO solution was dosed into 1 mL of plasma, which had been pre-warmed to 37° C., at a final test compound concentration of 1 μM. The vials were kept in a benchtop Thermomixer® for the duration of the experiment. Aliquots (100 μL) were taken at each time point (0, 15, 30, 60, and 120 minutes) and added to 96-well plates which had been pre-filled with 300 μL of acetonitrile. Samples were stored at 4° C. until the end of the experiment. After the final time point was sampled, the plate was mixed and then centrifuged at 3,000 rpm for 10 minutes. Aliquots of the supernatant were removed, diluted 1:1 into distilled water, and analyzed by LC-MS/MS. The peak area response ratio to internal standard (PARR) of the compound at 15, 30, 60 and 120 minutes was compared to the PARR at time 0 to determine the percent of test compound remaining at each time point. Half-lives were calculated using GraphPad software, fitting to a single-phase exponential decay equation.
Studies were carried out in plasma. Plasma was prepared under approval of IRB and IACUC on sodium heparin. The pH of plasma was monitored and used within the range of pH 7.4 to pH 8.0. DMSO stocks were prepared for the test compounds. Aliquots of the DMSO solutions were diluted to 0.05 mM by 0.05 mM Sodium phosphate buffer with 0.5% BSA. Then 10 μL of 0.05 mM solutions were dosed into 90 μL of plasma in duplicates (n=2), which had been pre-warmed to 37° C., at a final test compound concentration of 5 μM. The plates were kept in a 37° C. water bath for the duration of the experiment. At each time point (0, 5, 15, 30, 45, 60, and 120 minutes), 400 μL of acetonitrile was added into corresponding wells. After the final time point was sampled, the plates were shaken at the vibrator (IKA, MTS 2/4) for 10 min (600 rpm/min) and then centrifuged at 5594 g for 15 min (Thermo Multifuge×3R). Aliquots of the supernatant were removed, diluted 1:1 into distilled water, and analyzed by LC-MS/MS. The peak area response ratio to internal standard (PARR) of the compounds at 5, 15, 30, 45, 60, and 120 minutes was compared to the PARR at time 0 to determine the percent of test compound remaining at each time point. Half-lives were calculated using Excel software, fitting to a single-phase exponential decay equation.
On to `Cc1cccc2[nH]cc(C(=O)OCC34CCN(CC3)CC4)c12` [Compound 21, quinuclidin-4-ylmethyl 4-methyl-1H-indole-3-carboxylate], for which the “% Remaining @ 2 h” value is given as 83%.

On to `O=C(OCC12CCN(CC1)CC2)c1c[nH]c2cccc(Cl)c12` [Compound 35, quinuclidin-4-ylmethyl 4-chloro-1H-indole-3-carboxylate], for which the “% Remaining @ 2 h” value was found to be 56%.

Consider `O=C(OCC12CCN(CC1)CC2)c1c[nH]c2cccc(Br)c12` [Compound 24, quinuclidin-4-ylmethyl 4-bromo-1H-indole-3-carboxylate], for which the “% Remaining @ 2 h” value is reported as 89%.

On to `O=C(OCC12CCN(CC1)CC2)c1c[nH]c2ccc(Br)cc12` [Compound 23, quinuclidin-4-ylmethyl 5-bromo-1H-indole-3-carboxylate], for which the “% Remaining @ 2 h” value turned out to be 21%.

For `N#Cc1ccc2c(C(=O)OCC34CCN(CC3)CC4)c[nH]c2c1` [Compound 28, quinuclidin-4-ylmethyl 6-cyano-1H-indole-3-carboxylate], the “% Remaining @ 2 h” value was 79%.

`O=C(OCC12CCN(CC1)CC2)c1c[nH]c2cc(O)ccc12` [Compound 14, quinuclidin-4-ylmethyl 6-hydroxy-1H-indole-3-carboxylate]: the “% Remaining @ 2 h” value is listed as 26%.

Staying with this data set, now noted: human, plasma, pH 7.4.
Compound `Cc1ccc2[nH]cc(C(=O)OCC34CCN(CC3)CC4)c2c1Cl` [Compound 63, quinuclidin-4-ylmethyl 4-chloro-5-methyl-1H-indole-3-carboxylate] yielded a half-life at 5 μM of 7.05 h.

On to `COc1cc(C)cc2[nH]cc(C(=O)OCC34CCN(CC3)CC4)c12` [Compound 85, quinuclidin-4-ylmethyl 4 methoxy-6-methyl-1H-indole-3-carboxylate], for which the half-life at 5 μM worked out at 1.16 h.

For the compound `COc1ccc2[nH]cc(C(=O)OCC34CCN(CC3)CC4)c2c1OC` [Compound 40, quinuclidin-4-ylmethyl 4,5-dimethoxy-1H-indole-3-carboxylate], the T1/2 result was “∞”.

Take `Cc1cc2c(C(=O)OCC34CCN(CC3)CC4)c[nH]c2cc1O` [Compound 55, quinuclidin-4-ylmethyl 6-hydroxy-5-methyl-1H-indole-3-carboxylate]: the half-life at 5 μM was 1.54 h.

As to `COc1c(C)ccc2[nH]cc(C(=O)OCC34CCN(CC3)CC4)c12` [Compound 75, quinuclidin-4-ylmethyl 4-methoxy-5-methyl-1H-indole-3-carboxylate], the T1/2 entry was “∞”.

`Cc1c(OCCO)ccc2[nH]cc(C(=O)OCC34CCN(CC3)CC4)c12` [Compound 95, quinuclidin-4-ylmethyl 5-(2-hydroxyethoxy)-4-methyl-1H-indole-3-carboxylate, 2,2,2-trifluoroacetate salt] gave a half-life at 5 μM of 6.61 h.

`COc1cc(C#N)cc2[nH]cc(C(=O)OCC34CCN(CC3)CC4)c12` [Compound 77, quinuclidin-4-ylmethyl 6-cyano-4-methoxy-1H-indole-3-carboxylate] had a half-life at 5 μM of 3.87 h.

`COc1ccc2[nH]cc(C(=O)OCC34CCN(CC3)CC4)c2c1Cl` [Compound 39, quinuclidin-4-ylmethyl 4-chloro-5-methoxy-1H-indole-3-carboxylate] had a half-life at 5 μM of 0.711 h.

The compound `O=C(OCC12CCN(CC1)CC2)c1c[nH]c2cc(Cl)cc(Br)c12` [Compound 42, quinuclidin-4-ylmethyl 4-bromo-6-chloro-1H-indole-3-carboxylate] returned a half-life at 5 μM of 2.87 h.

As to `Cc1cc(C)c2c(C(=O)OCC34CCN(CC3)CC4)c[nH]c2c1` [Compound 54, quinuclidin-4-ylmethyl 4,6-dimethyl-1H-indole-3-carboxylate], the half-life at 5 μM came to 11.2 h.

In the case of `COc1cc(Cl)c2c(C(=O)OCC34CCN(CC3)CC4)c[nH]c2c1` [Compound 38, quinuclidin-4-ylmethyl 4-chloro-6-methoxy-1H-indole-3-carboxylate], the T1/2 result is given as “∞”.

The compound `O=C(OCC12CCN(CC1)CC2)c1c[nH]c2cccc(C3CC3)c12` [Compound 61, Quinuclidin-4-ylmethyl 4-cyclopropyl-1H-indole-3-carboxylate] displayed a half-life at 5 μM of 14 h.

For `O=C(OCC12CCN(CC1)CC2)c1c[nH]c2cc(F)cc(Br)c12` [Compound 41, quinuclidin-4-ylmethyl 4-bromo-6-fluoro-1H-indole-3-carboxylate], the T1/2 result was “∞”.

Turning to `Cc1cc(Br)c2c(C(=O)OCC34CCN(CC3)CC4)c[nH]c2c1` [Compound 49, quinuclidin-4-ylmethyl 4-bromo-6-methyl-1H-indole-3-carboxylate], the half-life at 5 μM was found to be 13.8 h.

`O=C(OCC12CCN(CC1)CC2)c1c[nH]c2cc(O)cc(Cl)c12` [Compound 46, quinuclidin-4-ylmethyl 4-chloro-6-hydroxy-1H-indole-3-carboxylate] displayed a half-life at 5 μM of 14.3 h.

`Cc1cc(OC(=O)C(C)(C)C)cc2[nH]cc(C(=O)OCC34CCN(CC3)CC4)c12` [Compound 89, quinuclidin-4-ylmethyl 4-methyl-6-(pivaloyloxy)-1H-indole-3-carboxylate]: the half-life at 5 μM amounted to 5.16 h.

For `COc1cc2c(C(=O)OCC34CCN(CC3)CC4)c[nH]c2cc1C#N` [Compound 76, quinuclidin-4-ylmethyl 6-cyano-5-methoxy-1H-indole-3-carboxylate], the half-life at 5 μM worked out at 4.88 h.

The same data set, now with this note: human; Protocol 2; plasma pH 7.4 to 8.0, 5 μM, 37° C.; read-out: T1/2.
For `Cl.O=C(OCC12CCN(CC1)CC2)c1c[nH]c2cc(F)c(F)cc12` [Compound 51, Quinuclidin-4-ylmethyl 5,6-difluoro-1H-indole-3-carboxylate hydrochloride], the half-life at 5 μM stood at 5.89 h.

`Cc1cc(Cl)c2c(C(=O)OCC34CCN(CC3)CC4)c[nH]c2c1.Cl` [Compound 65, quinuclidin-4-ylmethyl 4-chloro-6-methyl-1H-indole-3-carboxylate hydrochloride]: the half-life at 5 μM amounted to 5.56 h.

For the compound `Cc1ccc2c(C(=O)OCC34CCN(CC3)CC4)c[nH]c2c1.Cl` [Compound 45, Quinuclidin-4-ylmethyl 6-methyl-1H-indole-3-carboxylate hydrochloride], the half-life at 5 μM was 1.93 h.

With `Cc1cc2c(C(=O)OCC34CCN(CC3)CC4)c[nH]c2cc1C#N` [Compound 84, quinuclidin-4-ylmethyl 6-cyano-5-methyl-1H-indole-3-carboxylate], the half-life at 5 μM stood at 3.49 h.

In the case of `Cl.O=C(OCC12CCN(CC1)CC2)c1c[nH]c2cc(F)cc(Cl)c12` [Compound 64, quinuclidin-4-ylmethyl 4-chloro-6-fluoro-1H-indole-3-carboxylate hydrochloride], the half-life at 5 μM turned out to be 12.1 h.

With `Cl.O=C(OCC12CCN(CC1)CC2)c1c[nH]c2cc(C(F)(F)F)ccc12` [Compound 90, quinuclidin-4-ylmethyl 6-(trifluoromethyl)-1H-indole-3-carboxylate], the half-life at 5 μM is 3.05 h.

Regarding `COc1cc(Cl)cc2[nH]cc(C(=O)OCC34CCN(CC3)CC4)c12.Cl` [Compound 74, quinuclidin-4-ylmethyl 6-chloro-4-methoxy-1H-indole-3-carboxylate hydrochloride], the half-life at 5 μM was 2.94 h.

With `Cc1cc2[nH]cc(C(=O)OCC34CCN(CC3)CC4)c2cc1C.Cl` [Compound 73, Quinuclidin-4-ylmethyl 5,6-dimethyl-1H-indole-3-carboxylate hydrochloride], the half-life at 5 μM amounted to 1.57 h.
